Experimental findings from ChEMBL document CHEMBL5338760, “Ψ and χ Angle Constrains at the C-Terminus Trp Position of the Melanotropin Tetrapeptide Ac-His-d-Phe-Arg-Trp-NH2 Lead to Potent and Selective Agonists at hMC1R and hMC4R” (J Med Chem, 2023) are described below.

Test [1] has as its target T1, Melanocyte-stimulating hormone receptor (Homo sapiens, UniProt Q01726). Nature of the test: Displacement of [I125] NDP-alpha-MSH from human MC1R stably overexpressing in HEK293 cells in presence of [I125] labeled NDP-alpha-MSH treated at 10 uM for 40 mins measured by microbeta 2 microplate counter analysis. It is filed as cell-based.
Target sequence in this assay (Q01726 whole entry): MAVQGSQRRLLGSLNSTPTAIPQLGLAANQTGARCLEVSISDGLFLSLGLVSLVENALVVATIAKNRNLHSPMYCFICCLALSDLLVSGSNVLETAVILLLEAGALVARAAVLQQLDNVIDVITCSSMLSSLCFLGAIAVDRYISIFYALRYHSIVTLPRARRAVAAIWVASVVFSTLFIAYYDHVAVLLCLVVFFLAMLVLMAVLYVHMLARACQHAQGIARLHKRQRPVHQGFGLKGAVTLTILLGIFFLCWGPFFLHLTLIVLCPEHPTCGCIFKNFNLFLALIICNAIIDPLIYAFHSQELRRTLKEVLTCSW
In test [2] the target is T1, Melanocyte-stimulating hormone receptor. The test is described as follows: Agonist activity at human MC1R stably overexpressing in HEK293 cells assessed as intracellular acumulation of cAMP level incubated for 30 mins measured by microbeta 2 microplate counter analysis. It is filed as functional, cell-based.
Target sequence in this assay (Q01726 whole entry): as above
Test [3] has as its target T2, Melanocortin receptor 3 (Homo sapiens, UniProt P41968). Nature of the test: Displacement of [I125] NDP-alpha-MSH from human MC3R stably overexpressing in HEK293 cells in presence of [I125] labeled NDP-alpha-MSH treated at 10 uM for 40 mins measured by microbeta 2 microplate counter analysis. Type of test: cell-based.
The target of test [4] is T2, Melanocortin receptor 3. Nature of the test: Agonist activity at human MC3R stably overexpressing in HEK293 cells assessed as intracellular acumulation of cAMP level incubated for 30 mins measured by microbeta 2 microplate counter analysis. Type of test: functional, cell-based. In general terms: cAMP levels reflect the balance of adenylyl cyclase and phosphodiesterase activity.

The target in test [5] is T3, Melanocortin receptor 4 (Homo sapiens, UniProt P32245). Nature of the test: Displacement of [I125] NDP-alpha-MSH from human MC4R stably overexpressing in HEK293 cells in presence of [I125] labeled NDP-alpha-MSH treated at 10 uM for 40 mins measured by microbeta 2 microplate counter analysis. Type of test: cell-based.
T3 sequence (P32245 whole entry): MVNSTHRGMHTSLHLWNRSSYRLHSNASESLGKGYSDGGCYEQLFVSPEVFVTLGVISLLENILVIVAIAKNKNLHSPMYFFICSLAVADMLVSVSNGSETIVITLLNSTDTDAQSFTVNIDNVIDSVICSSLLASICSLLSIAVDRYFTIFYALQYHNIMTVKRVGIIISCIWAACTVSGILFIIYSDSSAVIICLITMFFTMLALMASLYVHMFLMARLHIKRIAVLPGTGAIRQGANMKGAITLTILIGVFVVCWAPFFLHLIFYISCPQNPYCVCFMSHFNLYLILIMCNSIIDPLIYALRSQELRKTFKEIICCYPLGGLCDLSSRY
In test [6] the target is T3, Melanocortin receptor 4. Nature of the test: Agonist activity at human MC4R stably overexpressing in HEK293 cells assessed as intracellular acumulation of cAMP level incubated for 30 mins measured by microbeta 2 microplate counter analysis. It is filed as functional, cell-based.
The target in test [7] is T4, Melanocortin receptor 5 (Homo sapiens, UniProt P33032). The test is described as follows: Displacement of [I125] NDP-alpha-MSH from human MC5R stably overexpressing in HEK293 cells in presence of [I125] labeled NDP-alpha-MSH treated at 10 uM for 40 mins measured by microbeta 2 microplate counter analysis. Type of test: cell-based.
T4 sequence (P33032 whole entry): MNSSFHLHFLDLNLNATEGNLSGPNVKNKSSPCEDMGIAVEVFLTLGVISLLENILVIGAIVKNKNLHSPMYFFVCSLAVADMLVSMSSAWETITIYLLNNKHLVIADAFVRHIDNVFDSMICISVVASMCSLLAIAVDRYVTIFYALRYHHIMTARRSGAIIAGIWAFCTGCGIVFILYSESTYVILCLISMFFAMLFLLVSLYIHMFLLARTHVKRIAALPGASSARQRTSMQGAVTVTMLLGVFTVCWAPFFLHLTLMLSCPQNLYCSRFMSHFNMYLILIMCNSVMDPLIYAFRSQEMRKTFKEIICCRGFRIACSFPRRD
The target of test [8] is T4, Melanocortin receptor 5. The test is described as follows: Agonist activity at human MC5R stably overexpressing in HEK293 cells assessed as intracellular acumulation of cAMP level incubated for 30 mins measured by microbeta 2 microplate counter analysis. Type of test: functional, cell-based.
Test [9] has as its target T1, Melanocyte-stimulating hormone receptor. The test is described as follows: Displacement of [I125] NDP-alpha-MSH from human MC1R stably overexpressing in HEK293 cells in presence of [I125] labeled NDP-alpha-MSH treated for 40 mins measured by microbeta 2 microplate counter analysis. It is filed as cell-based.
Target sequence in this assay (Q01726 whole entry): as the sequence (Q01726 whole entry) above
Test [10] has the same target. Nature of the test: Displacement of [I125] NDP-alpha-MSH from human MC1R stably overexpressing in HEK293 cells in presence of [I125] labeled NDP-alpha-MSH treated at 10 uM for 40 mins measured by microbeta 2 microplate counter analysis relative to control. It is filed as cell-based.
Target sequence in this assay (Q01726 whole entry, looked up): as the sequence (Q01726 whole entry) above
Test [11] has the same target. Nature of the test: Agonist activity at human MC1R stably overexpressing in HEK293 cells assessed as intracellular acumulation of cAMP level incubated at 10 uM for 30 mins measured by microbeta 2 microplate counter analysis relative to MT-II. It is filed as functional, cell-based. The settings on record: filed as agonist.
Target sequence in this assay (Q01726 whole entry, looked up): as the sequence (Q01726 whole entry) above
The target of test [12] is T4, Melanocortin receptor 5. The test is described as follows: Displacement of [I125] NDP-alpha-MSH from human MC5R stably overexpressing in HEK293 cells in presence of [I125] labeled NDP-alpha-MSH treated for 40 mins measured by microbeta 2 microplate counter analysis. It is filed as cell-based.
The target in test [13] is T2, Melanocortin receptor 3. Nature of the test: Agonist activity at human MC3R stably overexpressing in HEK293 cells assessed as intracellular acumulation of cAMP level incubated at 10 uM for 30 mins measured by microbeta 2 microplate counter analysis relative to MT-II. Type of test: functional, cell-based. The settings on record: filed as agonist.
Test [14] has as its target T4, Melanocortin receptor 5. Nature of the test: Displacement of [I125] NDP-alpha-MSH from human MC5R stably overexpressing in HEK293 cells in presence of [I125] labeled NDP-alpha-MSH treated at 10 uM for 40 mins measured by microbeta 2 microplate counter analysis relative to control. It is filed as cell-based.
The target in test [15] is T4, Melanocortin receptor 5. The test is described as follows: Agonist activity at human MC5R stably overexpressing in HEK293 cells assessed as intracellular acumulation of cAMP level incubated at 10 uM for 30 mins measured by microbeta 2 microplate counter analysis relative to MT-II. Type of test: functional, cell-based. To be noted: filed as agonist.
The target in test [16] is T2, Melanocortin receptor 3. Nature of the test: Displacement of [I125] NDP-alpha-MSH from human MC3R stably overexpressing in HEK293 cells in presence of [I125] labeled NDP-alpha-MSH treated for 40 mins measured by microbeta 2 microplate counter analysis. Type of test: cell-based.
Test [17] addresses T2, Melanocortin receptor 3. The test is described as follows: Displacement of [I125] NDP-alpha-MSH from human MC3R stably overexpressing in HEK293 cells in presence of [I125] labeled NDP-alpha-MSH treated at 10 uM for 40 mins measured by microbeta 2 microplate counter analysis relative to control. Type of test: cell-based. The settings on record: filed as agonist.
The target of test [18] is T3, Melanocortin receptor 4. Nature of the test: Displacement of [I125] NDP-alpha-MSH from human MC4R stably overexpressing in HEK293 cells in presence of [I125] labeled NDP-alpha-MSH treated for 40 mins measured by microbeta 2 microplate counter analysis. It is filed as cell-based.

T2 sequence (P41968 whole entry): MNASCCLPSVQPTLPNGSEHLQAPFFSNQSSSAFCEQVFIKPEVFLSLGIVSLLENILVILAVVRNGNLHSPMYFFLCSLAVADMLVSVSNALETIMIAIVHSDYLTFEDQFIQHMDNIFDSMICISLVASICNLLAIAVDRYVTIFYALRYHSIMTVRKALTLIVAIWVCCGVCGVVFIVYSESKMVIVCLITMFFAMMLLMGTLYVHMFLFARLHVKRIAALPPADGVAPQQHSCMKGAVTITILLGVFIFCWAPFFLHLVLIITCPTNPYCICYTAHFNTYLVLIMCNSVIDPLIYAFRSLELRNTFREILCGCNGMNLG

As for `CC(=O)N[C@@H](Cc1c[nH]cn1)C(=O)N[C@H](Cc1ccccc1)C(=O)N[C@@H](CCCNC(=N)N)C(=O)N[C@H]1Cc2ccccc2CNC1=O`, the concentration for half-maximal inhibition (IC50) entry (in [1]; at Melanocortin receptor 3 [3]; on Melanocortin receptor 4 [5]; on Melanocortin receptor 5 [7]) was “Not Active” in each case. In addition, the EC50 result (in test [2] (hek293); on Melanocortin receptor 3 [4] (hek293); on Melanocortin receptor 4 [6] (hek293); on Melanocortin receptor 5 [8] (hek293)) was “Not Active” each time.
`CC(=O)N[C@@H](Cc1c[nH]cn1)C(=O)N[C@H](Cc1ccccc1)C(=O)N[C@@H](CCCNC(=N)N)C(=O)N[C@H]1Cn2nncc2CNC1=O`: the IC50 (commonly the concentration that gives 50% inhibition) in test [9] was 0.0096 µM; at Melanocortin receptor 3 [3] it was “Not Active”; at Melanocortin receptor 4 [5] it was “Not Active”; at Melanocortin receptor 5 [12] it was over 1 µM. Further, the Activity in test [10] came out at 21%. For the same molecule, the EC50 – broadly, the concentration needed to bring the measured effect to its halfway point – was 0.136 µM in [2] (read-out: EC50), over 1 µM at Melanocortin receptor 3 [4] (read-out: EC50), “Not Active” at Melanocortin receptor 4 [6] (hek293) and “Not Active” on Melanocortin receptor 5 [8] (hek293). Besides, the Emax (commonly the size of the effect at its maximum, as opposed to the concentration needed) in test [11] amounted to 96%.
In the case of `CC(=O)N[C@@H](Cc1cnc[nH]1)C(=O)N[C@H](Cc1ccccc1)C(=O)N[C@@H](CCCNC(=N)N)C(=O)N[C@@H](Cc1c[nH]c2ccccc12)C(N)=O`, the Emax in test [11] is 100%; at Melanocortin receptor 3 [13], 100%; on Melanocortin receptor 5 [15], 63%. In addition, the Activity at Melanocortin receptor 5 [14] (filed as agonist) turned out to be 100%.
As to `CCCC[C@H](NC(=O)[C@@H](Cc1ccccc1)NC(=O)[C@H](Cc1c[nH]cn1)NC(C)=O)C(=O)N[C@H]1Cn2nncc2CNC1=O`, the IC50 result (in test [1]; on Melanocortin receptor 3 [3]; on Melanocortin receptor 4 [5]; on Melanocortin receptor 5 [7]) was “Not Active” throughout. The concentration for a half-maximal effect (EC50) entry (in test [2] (hek293); at Melanocortin receptor 3 [4] (hek293); on Melanocortin receptor 4 [6] (hek293); on Melanocortin receptor 5 [8] (hek293)) was “Not Active” each time.
Take `CCCC[C@H](NC(C)=N)C(=O)N[C@@H]1NCCCC[C@@H](C(N)=O)NC(=O)[C@H](Cc2c[nH]c3ccccc23)NC(=O)[C@H](CCCNC(=N)N)NC(=O)[C@H](Cc2ccccc2)NC(=O)[C@H](Cc2cnc[nH]2)NC1=O`: the IC50 in [9] is 0.001 µM; on Melanocortin receptor 3 [16], 0.002 µM; on Melanocortin receptor 5 [12] it was 0.004 µM. For the same molecule, the Activity (in [10] (filed as agonist); at Melanocortin receptor 3 [17]; at Melanocortin receptor 5 [14] (filed as agonist)) was 100% in each case. The values for the EC50 (in test [2] (read-out: EC50); on Melanocortin receptor 4 [6] (read-out: EC50); at Melanocortin receptor 5 [8] (read-out: EC50)) were 0.001 µM, 0.002 µM and 0.006 µM, respectively.
Consider `CCCC[C@H](NC(=O)[C@@H](Cc1ccccc1)NC(=O)[C@H](Cc1c[nH]cn1)NC(C)=O)C(=O)N[C@H]1Cc2ccccc2CNC1=O`, for which the IC50 entry (in [1]; at Melanocortin receptor 3 [3]; on Melanocortin receptor 4 [5]; on Melanocortin receptor 5 [7]) was “Not Active” throughout. Further, the EC50 result (in test [2] (hek293); on Melanocortin receptor 3 [4] (hek293); at Melanocortin receptor 4 [6] (hek293); on Melanocortin receptor 5 [8] (hek293)) was “Not Active” each time.
For `CC(=O)N[C@@H](Cc1c[nH]cn1)C(=O)N[C@H](Cc1ccccc1)C(=O)N[C@@H](CCCNC(=N)N)C(=O)N[C@H]1Cc2c([nH]c3ccccc23)CNC1=O`, the IC50 in test [9] is 0.034 µM; at Melanocortin receptor 3 [16] it was 0.165 µM; on Melanocortin receptor 4 [18] it was 0.166 µM; at Melanocortin receptor 5 [12], over 1 µM. Also, the Activity in [10] (filed as agonist) turned out to be 83%; at Melanocortin receptor 3 [17], 61%; at Melanocortin receptor 5 [14], 39%. For the same molecule, the EC50 in [2] (read-out: EC50) amounted to 0.0112 µM; on Melanocortin receptor 3 [4] (read-out: EC50), 0.166 µM; at Melanocortin receptor 4 [6] (read-out: EC50), 0.171 µM; at Melanocortin receptor 5 [8] (read-out: EC50), 0.165 µM. For the same molecule, the maximal effect (Emax) was 100% in test [11], 66% at Melanocortin receptor 3 [13] and 61% at Melanocortin receptor 5 [15].
Consider `CC(=O)N[C@@H](Cc1c[nH]cn1)C(=O)N[C@H](Cc1ccc(C(F)(F)F)cc1)C(=O)N[C@@H](CCCNC(=N)N)C(=O)N[C@H]1Cc2c([nH]c3ccccc23)CNC1=O`, for which the half-inhibitory concentration (IC50) in [9] was 0.081 µM; on Melanocortin receptor 3 [16] it was over 1 µM; on Melanocortin receptor 4 [18], 0.0025 µM; at Melanocortin receptor 5 [12] it was 0.04 µM. Also, the Activity in test [10] is 35%. Further, the concentration giving a half-maximal response (EC50) in [2] (read-out: EC50) is 0.037 µM; at Melanocortin receptor 3 [4] (hek293), “Not Active”; on Melanocortin receptor 4 [6] (read-out: EC50) it was 0.0041 µM; at Melanocortin receptor 5 [8] (hek293) it was “Not Active”. Moreover, the Emax in test [11] is 100%.
As for `CCCC[C@H](NC(=O)[C@@H](Cc1ccccc1)NC(=O)[C@H](Cc1c[nH]cn1)NC(C)=O)C(=O)N[C@H]1Cc2c([nH]c3ccccc23)CNC1=O`, the IC50 entry (in test [1]; on Melanocortin receptor 3 [3]; at Melanocortin receptor 4 [5]; at Melanocortin receptor 5 [7]) was “Not Active” each time. Further, the 50% effective concentration (EC50) was over 1 µM in test [2] (read-out: EC50), over 1 µM at Melanocortin receptor 3 [4] (read-out: EC50), over 1 µM at Melanocortin receptor 4 [6] (read-out: EC50) and “Not Active” on Melanocortin receptor 5 [8] (hek293).
